This is an account of results in PMC6129362, “MT1-MMP as a PET Imaging Biomarker for Pancreas Cancer Management” (Contrast Media & Molecular Imaging, 2018).

A short description of data set [1]: PET/CT imaging in heterotopic (subcutaneous) patient-derived xenograft mice. It counts as in vivo, mouse. The note with it: female, athymic nude-Foxn1nu (nu/nu), mouse, total radioactivity, heterotopic PDX mice. The text has this: (§1) PDX models used in this work were established as described by Rubio-Viqueira et al. and Hidalgo et al. using four- to six-week-old female athymic nude-Foxn1nu (nu/nu) mice, purchased from Envigo (Barcelona, Spain). Animals were maintained at the Spanish National Cancer Research Centre (CNIO) Animal Facility (awarded with the AAALAC accreditation). Orthotopic tumours were monitored by ultrasonography, and those implanted into the flanks were allowed to grow to approximately 40 to 200 mm^3 prior to perform PET imaging studies.
(§2) PET imaging was performed with a small-animal Argus PET-CT scanner (SEDECAL, Madrid, Spain). PET studies (energy window 250–700 KeV and 30 min static acquisition) and CT studies (voltage 45 kV, current 150 μA, 8 shots, 360 projections, and standard resolution) were performed either at 90 min or at various time points after injection of ^68Ga-DOTA-AF7p or ^89Zr-DFO-LEM2/15, respectively, in mice anesthetized by inhalation of 2–2.5% isoflurane. PET image reconstruction was accomplished using a 2D-OSEM (ordered subset expectation maximization) algorithm (16 subsets and two iterations), with random and scatter correction. A calibration factor predetermined by scanning a cylindrical phantom containing a known activity of ^68Ga or ^89Zr was used to convert counts per pixel/sec to kBq/cm^3. Manually drawn regions of interest (ROIs) selected from PET images using CT anatomical guidelines were used to determine the mean radiotracer accumulation in units of %ID/g tissue (decay corrected to the time of injection) by dividing the obtained average tracer concentration (kBq/cm^3) in the region by the total ID (injected dose, expressed in kBq). Tumour-to-blood and tumour-to-background ratios were calculated from %ID/g values in ROIs for the whole tumour, heart (a measure of the blood pool), and brain (for background measurements). Images were analysed with the image analysis software ITK-SNAP [26] (http://www.itksnap.org).
For orientation: In xenograft studies the graft and the host belong to different species.

The subject of data set [2] is subcutaneous PDAC patient-derived xenograft. Described as above. It counts as in vivo, mouse. The following applies: heterotopic PDX mice.
From the text: as §1, §2

A short description of data set [3]: PET/CT imaging in CAPAN-2-tumour-bearing mice. It counts as in vivo. The following applies: female, athymic nude-Foxn1nu (nu/nu), mouse, iv, total radioactivity, CAPAN-2 xenograft mice, i.v., PET 90 min after injection, mean ± SD (n=33 for -1, n=17 for -2), read-out: Tumour uptake quantified by PET imaging. The method, then: For the cell line-derived model, 1 × 10^6 CAPAN-2 cells were injected subcutaneously into the flanks of female athymic nude-Foxn1nu (nu/nu) mice (Harlan Laboratories). Tumours were allowed to develop until palpable prior to PET imaging. Mice were sacrificed when the tumour mass reached a maximum size of 1500 mm^3 or tumour ulceration was observed, or mice were symptomatic from their tumours which included signs of lethargy, poor grooming, weight loss, and hunching.
PET imaging was performed with a small-animal Argus PET-CT scanner (SEDECAL, Madrid, Spain). PET studies (energy window 250–700 KeV and 30 min static acquisition) and CT studies (voltage 45 kV, current 150 μA, 8 shots, 360 projections, and standard resolution) were performed either at 90 min or at various time points after injection of ^68Ga-DOTA-AF7p or ^89Zr-DFO-LEM2/15, respectively, in mice anesthetized by inhalation of 2–2.5% isoflurane. PET image reconstruction was accomplished using a 2D-OSEM (ordered subset expectation maximization) algorithm (16 subsets and two iterations), with random and scatter correction. […] Tumour-to-blood and tumour-to-background ratios were calculated from %ID/g values in ROIs for the whole tumour, heart (a measure of the blood pool), and brain (for background measurements). Images were analysed with the image analysis software ITK-SNAP [26] […]

Where a SMILES comes first, the peptide text is derived from it. The star is where a group is joined. DOTA = O=C(O)CN1CCN(CC(=O)O)CCN(CC(=O)*)CCN(CC(=O)O)CC1

With `CC(C)C[C@H](NC(=O)[C@H](Cc1ccccc1)NC(=O)[C@@H](NC(=O)[C@H](CCCCN)NC(=O)[C@@H](NC(=O)[C@H](CC(N)=O)NC(=O)[C@H](Cc1c[nH]cn1)NC(=O)[C@H](CC(C)C)NC(=O)[C@H](Cc1c[nH]cn1)NC(=O)[C@H](CCCCN)NC(=O)[C@H](Cc1c[nH]c2ccccc12)NC(=O)[C@H](Cc1c[nH]cn1)NC(=O)CN1CCN(CC(=O)O)CCN(CC(=O)O)CCN(CC(=O)O)CC1)[C@@H](C)O)[C@@H](C)O)C(=O)O` [^68Ga-DOTA-AF7p-1, metal not drawn] ({DOTA}-HWKHLHNTKTFL-OH), the tissue uptake at 1.5 h was found to be 4.03 ± 1.73 %ID/g in data set [1] (kidneys, PET, n=17, read-out: Mean accumulation in kidneys); 0.8 ± 0.6 %ID/g in data set [1] (liver, PET, n=16, read-out: Mean accumulation in liver); 0.23 ± 0.085 %ID/g in data set [1] (tumour, PET 90 min after injection, start of the PET study, n=8, read-out: Tumour uptake quantified by PET imaging); 0.227 ± 0.142 %ID/g in data set [1] (tumour, PET 90 min after injection, study day 5, n=8, read-out: Tumour uptake quantified by PET imaging); 0.26 ± 0.047 %ID/g in data set [1] (tumour, PET 90 min after injection, study day 8, n=6, read-out: Tumour uptake quantified by PET imaging); 0.185 ± 0.082 %ID/g in data set [1] (tumour, PET 90 min after injection, study day 14, n=10, read-out: Tumour uptake quantified by PET imaging). Further, in data set [3], the tissue uptake at 1.5 h amounted to 0.171 ± 0.095 %ID/g. Further, the “Route of excretion (signals in kidneys and bladder on PET)” value in data set [2] is given as “mainly excreted through the renal route”.
`CC(C)C[C@H](NC(=O)[C@H](Cc1ccccc1)NC(=O)[C@@H](NC(=O)[C@H](CCCCN)NC(=O)[C@@H](NC(=O)[C@H](CC(N)=O)NC(=O)[C@H](Cc1c[nH]cn1)NC(=O)[C@H](CC(C)C)NC(=O)[C@H](Cc1c[nH]cn1)NC(=O)[C@H](CCCCNC(=O)CN1CCN(CC(=O)O)CCN(CC(=O)O)CCN(CC(=O)O)CC1)NC(=O)[C@H](Cc1c[nH]c2ccccc12)NC(=O)[C@@H](N)Cc1c[nH]cn1)[C@@H](C)O)[C@@H](C)O)C(=O)O` [^68Ga-DOTA-AF7p-2, metal not drawn] (H-HWK(DOTA)HLHNTKTFL-OH): the tissue uptake at 1.5 h in data set [3] is 0.216 ± 0.095 %ID/g.
